According to the Kinase Knowledgebase extract (Sharma et al. 2016):

Molecular target: MAPK14;MAPK11;MAPK12 (human) (UniProt Q16539)
Assay: Inhibition of p38 Kinase Activity

Row | SMILES | IC50
1 | Cc1ccc2c(c1Nc1nc(NCC(C)(C)C)nc(N[C@H]3CCNC3)n1)CNC2=O | < 1000 nM
2 | Cc1ccc(C(N)=O)cc1Nc1nc(N[C@H]2CCNC2)nc(N(C)CC(C)C)n1 | < 1000 nM
3 | Cc1ccc(C(N)=O)cc1Nc1nc(N[C@H]2CCCC[C@H]2N)nc(N(C)CC(C)C)n1 | < 1000 nM
4 | CNC(=O)c1ccc(C)c(Sc2nc(N[C@@H]3CCNC3)nc(N(C)CC(C)(C)C)n2)c1 | < 30000 nM
5 | Cc1ccc(C(N)=O)cc1Nc1nc(N[C@H]2CCN(CC(C)(C)C)C2)nc(N(C)CC(C)(C)C)n1 | < 1000 nM
6 | Cc1ccc(C(N)=O)cc1Nc1nc(N[C@H]2CCN(Cc3ccc(C(C)C)cc3)C2)nc(N(C)CC(C)C)n1 | < 1000 nM
7 | Cc1ccc(Nc2nc(NC[C@@H]3CC[C@H]4C[C@@H]3C4(C)C)nc(N3CCCNCC3)n2)cc1C(N)=O | < 10000 nM
8 | Cc1ccc(C(N)=O)cc1Nc1nc(N[C@H]2CCCNC2)nc(N(C)CC(C)C)n1 | < 1000 nM
9 | CNC1CCN(c2cc(NCCOC(C)C)nc(-n3cnc4ccccc43)n2)C1 (stereo not given) | < 10000 nM
10 | CCONC(=O)c1ccc(C)c(Nc2nc(N(C)CC(C)(C)C)nc(N3CCCN(C)CC3)n2)c1 | < 1000 nM
11 | Cc1ccc(C(N)=O)cc1Nc1nc(N[C@@H]2CCN(C(C)C(F)(F)F)C2)nc(N(C)CC(C)(C)C)n1 (stereo not given in full) | < 1000 nM
12 | COCC(C)N1CC[C@@H](Nc2nc(Nc3cc(C(N)=O)ccc3C)nc(N(C)CC(C)(C)C)n2)C1 (stereo not given in full) | < 1000 nM
13 | Cc1cc2c(cc1Nc1nc(NCC(C)(C)C)nc(N[C@H]3CCNC3)n1)C(=O)NC2 | < 1000 nM
14 | CC(C)CN(C)c1nc(Nc2cc(C(N)=O)ccc2C(F)(F)F)nc(N[C@H]2CCNC2)n1 | < 1000 nM
15 | Cc1ccc(C(N)=O)cc1Nc1nc(N[C@H]2CN[C@@H](CO)C2)nc(N(C)CC(C)(C)C)n1 | < 1000 nM
16 | CONC(=O)c1ccc(C)c(Nc2nc(Cl)nc(N(C)CC(C)(C)C)n2)c1 | < 1000 nM
17 | Cc1ccc(C(=O)NC(C)C)cc1Nc1nc(N[C@H]2CCNC2)nc(N(C)CC(C)(C)C)n1 | < 1000 nM
18 | CONC(=O)c1ccc(C)c(Nc2nc(NCCCN3CCOCC3)nc(N(C)CC(C)(C)C)n2)c1 | < 1000 nM
19 | Cc1ccc(C(N)=O)cc1Nc1nc(N[C@H]2CCN(Cc3ccc(Cl)c(Cl)c3)C2)nc(N(C)CC(C)C)n1 | < 1000 nM

The remaining lines, values ahead:

Row | IC50 | SMILES
20 | < 10000 nM | CC(CNc1nc(Nc2ccc3ncsc3c2)nc(N(C)CCCN(C)C(=O)C2CCOC2)n1)c1ccccc1 (stereo not given)
21 | < 10000 nM | CNCCN(C)c1nc(NCc2ccc(F)cc2F)nc(Nc2ccc3ncsc3c2)n1
22 | < 1000 nM | Cc1ccc(C(N)=O)cc1Nc1nc(N[C@H]2CCN(C(C)c3ccccn3)C2)nc(N(C)CC(C)C)n1 (stereo not given in full)
23 | < 10000 nM | CC(CNc1nc(Nc2ccc3ncsc3c2)nc(N(C)CCCN(C)C(=S)NC2CCCCC2)n1)c1ccccc1 (stereo not given)
24 | < 10000 nM | CC(CNc1nc(Nc2ccc3ncsc3c2)nc(N2CCN(S(=O)(=O)N(C)C)CC2)n1)c1ccccc1 (stereo not given)
25 | < 10000 nM | Clc1nc(Nc2ccc3ncsc3c2)nc(N2CCc3ccccc3C2)n1
26 | < 1000 nM | Cc1ccc(C(N)=O)cc1Nc1nc(N[C@@H]2CCNC2)nc(N2CCc3ccccc3C2)n1
27 | < 10000 nM | CC(CNc1nc(Nc2ccc3ncsc3c2)nc(N(C)CCCN(C)C(=O)c2ccco2)n1)c1ccccc1 (stereo not given)
28 | < 1000 nM | Cc1ccc(C(N)=O)cc1Nc1nc(NC2CCNC2)nc(NC2CCN(Cc3ccccc3)C2)n1 (stereo not given)
29 | < 10000 nM | CNCCN(C)c1nc(NC[C@@H]2CC[C@H]3C[C@@H]2C3(C)C)nc(Nc2ccc3ncsc3c2)n1
30 | < 1000 nM | Cc1ccc(C(N)=O)cc1Nc1nc(NC2CCN(Cc3ccccc3)C2)nc(N(C)CC(C)(C)C)n1 (stereo not given)
31 | < 10000 nM | Cc1ccccc1NC(=O)N1CC2CC1CN2c1nc(NCC(C)c2ccccc2)nc(Nc2ccc3ncsc3c2)n1 (stereo not given)
32 | < 10000 nM | CC(CNc1nc(Nc2ccc3ncsc3c2)nc(N2CCN(C(=O)c3ccc(-c4ccccc4)cc3)CC2)n1)c1ccccc1 (stereo not given)
33 | < 10000 nM | O=C(O)CCC(=O)N1CCN(c2nc(NCC3CCCCC3)nc(Nc3ccc4ncsc4c3)n2)CC1
34 | < 10000 nM | CSc1nc2ccc(Nc3nc(NC[C@H](C)O)nc(N[C@@H](C)C4CCCCC4)n3)cc2s1
35 | < 10000 nM | CC(CNc1nc(Nc2ccc3ncsc3c2)nc(N(C)CCCN(C)C(=O)c2ccccc2)n1)c1ccccc1 (stereo not given)
